The record followed here is patent US7479500B2, “Antidepressant piperidine derivatives of heterocyclefused benzodioxans” (Wyeth, priority 2002, dated 2009).

Counter-ions that a name gives are not always drawn. Like-named read-outs stand apart in the source and are kept apart here.

Series [1] has as its target T1, cloned human 5-HT1A receptors (Homo sapiens, UniProt P08908).
T1 construct: expressed in transfected cells
T1 sequence (P08908 1-422): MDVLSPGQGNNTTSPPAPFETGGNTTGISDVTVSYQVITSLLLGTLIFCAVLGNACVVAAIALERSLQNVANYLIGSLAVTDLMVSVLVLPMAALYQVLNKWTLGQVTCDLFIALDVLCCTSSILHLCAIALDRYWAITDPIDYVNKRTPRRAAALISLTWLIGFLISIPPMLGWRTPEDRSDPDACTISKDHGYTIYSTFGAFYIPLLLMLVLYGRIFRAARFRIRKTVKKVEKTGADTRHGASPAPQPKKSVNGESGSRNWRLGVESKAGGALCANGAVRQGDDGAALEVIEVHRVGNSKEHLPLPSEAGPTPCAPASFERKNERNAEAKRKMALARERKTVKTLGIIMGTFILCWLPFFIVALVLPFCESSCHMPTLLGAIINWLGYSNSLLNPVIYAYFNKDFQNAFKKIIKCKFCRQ
In words: 35S-GTPγS binding assay for antagonist activity at 5-HT1A receptors. As to conditions: membranes with cloned human 5-HT1A receptors, reversal of agonist 8-OHDPAT; for Emax: read-out: 5-HT1A Function (Imax), maximum inhibitory effect; for IC50: read-out: 5-HT1A Function IC50. It is filed as biochemical. The method, then: Antagonist activity at 5-HT1A receptors was established by using a ^35S-GTPγS binding assay similar to that used by Lazareno and Birdsall (Br. J. Pharmacol. 109: 1120, 1993), in which the test compound's ability to affect the binding of ^35S-GTPγS to membranes containing cloned human 5-HT1A receptors was determined. Agonists produce an increase in binding whereas antagonists produce no increase but rather reverse the effects of the standard agonist 8-OHDPAT. The test compound's maximum inhibitory effect is represented as the Imax, while its potency is defined by the IC50.
For orientation: GTPγS resists hydrolysis and so accumulates on activated G proteins.

Series [2] addresses T2, serotonin transporter (Rattus norvegicus, UniProt P31652).
T2 construct: displace ^3H-paroxetine from male rat frontal cortical membranes; from tissue; host or cells: male rat frontal cortex membranes
Description: 3H-paroxetine displacement from rat frontal cortical membranes (serotonin transporter affinity). It is filed as binding.

The target in series [3] is T3, human 5-HT1A receptors (Homo sapiens, UniProt P08908).
T3 construct: expressed in transfected cells; host or cells: CHO cells
T3 sequence (P08908 1-422): T1 sequence (P08908 1-422)
Description: [3H] 8-OHDPAT displacement from 5-HT1A receptor in transfected CHO cells. It is filed as binding. An excerpt:
High affinity for the serotonin 5-HT1A receptor was established by testing the claimed compound's ability to displace [^3H] 8-OHDPAT (dipropylaminotetralin) from the 5-HT1A serotonin receptor following a modification of the procedure of Hall et al., J. Neurochem. 44, 1685 (1985) which utilizes CHO cells stably transfected with human 5-HT1A receptors.

The mark [4] stands for this setting: displacement of [3H] 8-OHDPAT, CHO cells stably transfected with human 5-HT1A receptors, read-out: 5-HT1A Receptor Affinity KI.
The mark [5] stands for this setting: displacement of 3H-paroxetine, male rat frontal cortical membranes, read-out: 5-HT Transporter Affinity KI.

T2 sequence (P31652 whole entry): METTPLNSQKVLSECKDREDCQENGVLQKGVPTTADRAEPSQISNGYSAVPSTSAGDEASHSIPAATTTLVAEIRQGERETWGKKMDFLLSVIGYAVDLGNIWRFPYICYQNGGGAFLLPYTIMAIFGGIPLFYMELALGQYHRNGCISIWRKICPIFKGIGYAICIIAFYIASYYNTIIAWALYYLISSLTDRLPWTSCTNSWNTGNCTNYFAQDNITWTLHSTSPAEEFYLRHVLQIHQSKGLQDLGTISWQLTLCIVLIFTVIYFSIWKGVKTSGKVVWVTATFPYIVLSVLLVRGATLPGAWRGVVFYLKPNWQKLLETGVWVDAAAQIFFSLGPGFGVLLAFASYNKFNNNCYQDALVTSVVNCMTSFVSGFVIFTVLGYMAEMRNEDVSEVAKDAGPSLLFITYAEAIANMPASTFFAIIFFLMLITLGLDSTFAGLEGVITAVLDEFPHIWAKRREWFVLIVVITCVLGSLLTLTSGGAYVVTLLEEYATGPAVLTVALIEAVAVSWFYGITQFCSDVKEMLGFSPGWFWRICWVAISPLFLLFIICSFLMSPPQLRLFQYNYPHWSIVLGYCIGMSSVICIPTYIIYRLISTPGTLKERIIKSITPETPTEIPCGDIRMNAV

The compound `Cc1ccc2c3c(ccc2n1)OCC(CN1CC=C(c2csc4ccccc24)CC1)O3` (stereo not shown) (as salt: oxalate) [Example 1, 2-(4-Benzo[b]thiophen-3-yl-3,6-dihydro-2H-pyridin-1-ylmethyl)-8-methyl-2,3-dihydro-[1,4]dioxino[2,3-f]quinoline] yielded a melting point of 129 to 133 °C.

For the compound `Cc1ccc2c3c(ccc2n1)OCC(CN1CC=C(c2csc4ccc(F)cc24)CC1)O3` (stereo not shown) (as salt: oxalate) [Example 3, 2-[4-(5-Fluoro-benzo[b]thiophen-3-yl)-3,6-dihydro-2H-pyridin-1-ylmethyl]-8-methyl-2,3-dihydro-[1,4]dioxino[2,3-f]quinoline], the melting point fell in the range of 197 to 201 °C.

The compound `Fc1ccc2scc(C3=CCN(CC4COc5ccc6ncccc6c5O4)CC3)c2c1` (stereo not shown) (as salt: oxalate) [Example 5, 2-[4-(5-Fluoro-benzo[b]thiophen-3-yl)-3,6-dihydro-2H-pyridin-1-ylmethyl]-2,3-dihydro-[1,4]dioxino[2,3-f]quinoline] yielded a melting point of 183 to 185 °C.

In the case of `C1=C(c2csc3ccccc23)CCN(CC2COc3ccc4ncccc4c3O2)C1` (stereo not shown) (as salt: oxalate) [Example 6, 2-(4-Benzo[b]thiophen-3-yl-3,6-dihydro-2H-pyridin-1-ylmethyl)-2,3-dihydro-[1,4]dioxino[2,3-f]quinoline], the melting point was in the range of 178 to 180 °C.

`Cc1nc2ccc3c(c2o1)OC(CN1CC=C(c2csc4ccccc24)CC1)CO3` (stereo not shown) (as salt: oxalate) [Example 9, 8-(4-Benzo[b]thiophen-3-yl-3,6-dihydro-2H-pyridin-1-ylmethyl)-2-methyl-7,8-dihydro-[1,4]dioxino[2,3-g][1,3]benzoxazole] came in with a melting point of 126 to 129 °C.

In turn, `Cc1ccc2c3c(ccc2n1)OCC(CN1CC=C(c2cccc4ccsc24)CC1)O3` (stereo not shown) (as salt: oxalate) [Example 10, 2-(4-Benzo[b]thiophen-7-yl-3,6-dihydro-2H-pyridin-1-ylmethyl)-8-methyl-2,3-dihydro-[1,4]dioxino[2,3-f]quinoline] displayed a melting point of 183 to 185 °C.

With `Cc1ccc2c3c(ccc2n1)OCC(CN1CC=C(c2csc4ccccc24)CC1)O3` (stereo not shown) [Example 1, 2-(4-Benzo[b]thiophen-3-yl-3,6-dihydro-2H-pyridin-1-ylmethyl)-8-methyl-2,3-dihydro-[1,4]dioxino[2,3-f]quinoline], in series [1], the Emax amounted to 100% and the IC50 was 0.499 µM. Also, the Ki in series [2] came to 0.00925 µM. Also, affinity in series [3] was put at a Ki of 0.00489 µM.

In turn, `Cc1ccc2c3c(ccc2n1)OCC(CN1CC=C(c2cc4ccccc4s2)CC1)O3` (stereo not shown) [Example 2, 2-(4-Benzo[b]thiophen-2-yl-3,6-dihydro-2H-pyridin-1-ylmethyl)-8-methyl-2,3-dihydro-[1,4]dioxino[2,3-f]quinoline] had a melting point of 174 to 176 °C. Also, the Ki in series [2] came to 0.078 µM. The Ki in series [3] (setting [4]) turned out to be 0.0216 µM.

Turning to `Cc1ccc2c3c(ccc2n1)OCC(CN1CC=C(c2csc4ccc(F)cc24)CC1)O3` (stereo not shown) [Example 3, 2-[4-(5-Fluoro-benzo[b]thiophen-3-yl)-3,6-dihydro-2H-pyridin-1-ylmethyl]-8-methyl-2,3-dihydro-[1,4]dioxino[2,3-f]quinoline], in series [1], the Emax turned out to be 87.4% and the IC50 stood at 0.437 µM. The compound also gave a Ki in series [2] of 0.0185 µM. Further, in series [3], the affinity corresponds to a Ki of 0.0159 µM.

For the compound `COc1cccc2c(C3=CCN(C[C@H]4COc5ccc6nc(C)ccc6c5O4)CC3)coc12` [Example 4, 2-[4-(7-Methoxy-benzofuran-3-yl)-3,6-dihydro-2H-pyridin-1-ylmethyl]-8-methyl-2,3-dihydro-[1,4]dioxino[2,3-f]guinoline], in series [1], the Emax was 91% and the IC50 came to 0.167 µM. In addition, in series [2], affinity was put at a Ki of 0.07 µM. The same compound registered a Ki in series [3] of 0.00266 µM.

Consider `Fc1ccc2scc(C3=CCN(CC4COc5ccc6ncccc6c5O4)CC3)c2c1` (stereo not shown) [Example 5, 2-[4-(5-Fluoro-benzo[b]thiophen-3-yl)-3,6-dihydro-2H-pyridin-1-ylmethyl]-2,3-dihydro-[1,4]dioxino[2,3-f]quinoline], for which, in series [1], the Emax is 30% and the IC50 was 1 µM. The same compound displayed a Ki in series [2] of 0.035 µM. In series [3], this compound yielded a Ki of 0.0234 µM.

With `C1=C(c2csc3ccccc23)CCN(CC2COc3ccc4ncccc4c3O2)C1` (stereo not shown) [Example 6, 2-(4-Benzo[b]thiophen-3-yl-3,6-dihydro-2H-pyridin-1-ylmethyl)-2,3-dihydro-[1,4]dioxino[2,3-f]quinoline], in series [1], the Emax is 100% and the IC50 amounted to 0.145 µM. The Ki in series [2] came out at 0.0085 µM. This compound also gave a Ki in series [3] of 0.0145 µM.

Turning to `C1=C(c2csc3ccccc23)CCN(CC2COc3ccc4[nH]ccc4c3O2)C1` (stereo not shown) [Example 7, 2-(4-Benzo[b]thiophen-3-yl-3,6-dihydro-2H-pyridin-1-ylmethyl)-2,3-dihydro-7H-[1,4]dioxino[2,3-e]indole], in series [1], the Emax came out at 100% and the IC50 was found to be 0.0258 µM. The compound also gave a Ki in series [2] of 0.00248 µM. In series [3], this compound showed a Ki of 0.00474 µM.

Consider `Fc1ccc2scc(C3=CCN(C[C@H]4COc5ccc6[nH]ccc6c5O4)CC3)c2c1` [Example 8, 2-[4-(5-Fluoro-benzo[b]thiophen-3-yl)-3,6-dihydro-2H-pyridin-1-ylmethyl]-2,3-m-dihydro-7H-[1,4]dioxino[2,3-e]indole], for which, in series [1], the Emax is 100% and the IC50 came out at 0.147 µM. In series [2], this compound registered a Ki of 0.033 µM. The compound also displayed a Ki in series [3] of 0.00345 µM.

On to `Cc1nc2ccc3c(c2o1)OC(CN1CC=C(c2csc4ccccc24)CC1)CO3` (stereo not shown) [Example 9, 8-(4-Benzo[b]thiophen-3-yl-3,6-dihydro-2H-pyridin-1-ylmethyl)-2-methyl-7,8-dihydro-[1,4]dioxino[2,3-g][1,3]benzoxazole], for which the Emax in series [1] was found to be 50%. Further, in series [1], the IC50 turned out to be 1.98 µM. Also, the Ki in series [2] was 0.013 µM; in series [3] it was 0.0202 µM.

In the case of `Cc1ccc2c3c(ccc2n1)OCC(CN1CC=C(c2cccc4ccsc24)CC1)O3` (stereo not shown) [Example 10, 2-(4-Benzo[b]thiophen-7-yl-3,6-dihydro-2H-pyridin-1-ylmethyl)-8-methyl-2,3-dihydro-[1,4]dioxino[2,3-f]quinoline], in series [1], the Emax was 40.5% and the IC50 was 0.392 µM. In series [2], this compound showed a Ki of 0.01 µM. In series [3], this compound yielded a Ki of 0.0349 µM.

Turning to `Cc1ccc2c3c(ccc2n1)OCC(CN1CC=C(c2cc4ccccc4o2)CC1)O3` (stereo not shown) [Example 11, 2-(4-Benzofuran-2-yl-3,6-dihydro-2H-pyridin-1-ylmethyl)-8-methyl-2,3-dihydro-[1,4]dioxino[2,3-f]quinoline], the melting point is 149 to 150 °C. For the same compound, in series [1], the Emax was found to be 70% and the IC50 was 15.5 µM. In addition, the Ki in series [2] (setting [5]) amounted to 0.213 µM. Moreover, the affinity in series [3] corresponds to a Ki of 0.0157 µM.

`Cc1ccc2c3c(ccc2n1)OCC(CN1CCC(c2cc4ccccc4o2)CC1)O3` (stereo not shown) [Example 12, 2-(4-Benzofuran-2-yl-piperidin-1-ylmethyl)-8-methyl-2,3-dihydro-[1,4]dioxino[2,3-f]quinoline] came in with a melting point of 103 to 104 °C. Also, in series [1], the Emax was 100% and the IC50 turned out to be 0.59 µM. For the same compound, the Ki in series [2] (setting [5]) was determined as 0.109 µM. Moreover, the Ki in series [3] (setting [4]) is 0.00867 µM.

As for `Cc1ccc2c3c(ccc2n1)OCC(CN1CC=C(c2csc4ccc(Cl)cc24)CC1)O3` (stereo not shown) [Example 13, 2-[4-(5-Chloro-benzo[b]thiophen-3-yl)-3,6-dihydro-2H-pyridin-1-ylmethyl]-8-methyl-2,3-dihydro-[1,4]dioxino[2,3-f]quinoline], in series [1], the Emax is 100% and the IC50 is 2.52 µM. The Ki in series [2] is 0.094 µM. In addition, in series [3] (setting [4]), the Ki was found to be 0.135 µM.

`Cc1ccc2c3c(ccc2n1)OCC(CN1CCC(c2nc4ccccc4o2)CC1)O3` (stereo not shown) [Example 14, 2-(4-Benzoxazol-2-yl-piperidin-1-ylmethyl)-8-methyl-2,3-dihydro-[1,4]dioxino[2,3-f]quinoline] registered a melting point of 128 to 130 °C. Further, in series [1], the Emax is 100% and the IC50 was 0.167 µM. Moreover, the Ki in series [2] (setting [5]) was 0.017 µM. In addition, the inhibition constant Ki in series [3] (setting [4]) turned out to be 0.0198 µM.

The term melting point denotes the temperature of the solid-liquid transition. One may read the IC50 as the concentration that gives 50% inhibition. As usually defined, the Ki is the dissociation constant of the complex between target and ligand, obtained from inhibition or displacement.
